From patent publication US5043450A, “8-alkoxyquinolonecarboxylic acid and salts thereof” (priority 1986, dated 1991)
Like-named read-outs stand apart in the source and are kept apart here.

Assays:
Assay type in all cases: cell-based
S. aureus Smith = assay: Antibacterial spectra, MIC; settings: Staphylococcus aureus
[1] = test system: Pseudomonas aeruginosa V-1; assay: Antibacterial spectra, MIC; settings: V1
[2] = test system: Bacteroides fragilis GM 7000; assay: Antibacterial spectra, MIC; settings: GM7000
[3] = test system: Propionibacterium acens 11828; assay: Antibacterial spectra, MIC
Pst. micros UPI 5464-1 = assay: Antibacterial spectra, MIC; settings: Parvimonas micra, UPI54641
B. distasonis 8503 = assay: Antibacterial spectra, MIC; settings: Parabacteroides distasonis
[4] = test system: Peptostreptococcus anaerobius KYA 27337; assay: Antibacterial spectra, MIC; settings: KYA27337
[5] = test system: Klebsiella pneumoniae KY(GN)6445; assay: Antibacterial spectra, MIC
K. pneumoniae 1-220S = assay: Antibacterial spectra, MIC; settings: Klebsiella pneumoniae, 1220S
[6] = test system: Yersinia enterocolitica IID 981; assay: Antibacterial spectra, MIC; settings: IID981
[7] = test system: Escherichia coli NIHJ JC-2; assay: Antibacterial spectra, MIC; settings: NIHJJC2
C. ramosum = assay: Antibacterial spectra, MIC; settings: Thomasclavelia ramosa
Bacilus subtilis PCI 219 = assay: Antibacterial spectra, MIC; settings: Bacillus subtilis, PCI219
[8] = test system: Staphylococcus aureus 209 P; assay: Antibacterial spectra, MIC
C. perfringens KYA 13123 = assay: microbe, parasite or virus in culture; settings: Clostridium perfringens, KYA13123
[9] = test system: Morganella morganii IID 602; assay: Antibacterial spectra, MIC; settings: IID602
S. pneumoniae IID 552 = assay: Antibacterial spectra, MIC; settings: Streptococcus pneumoniae, IID552
P. mirabilis IID 994 = assay: Antibacterial spectra, MIC; settings: Proteus mirabilis, IID994
[10] = test system: S. aureus IID 670 (Terajima); assay: Antibacterial spectra, MIC; settings: Staphylococcus aureus, IID670
[11] = test system: B. thetaiotaomicron (0661); assay: Antibacterial spectra, MIC; settings: Bacteroides thetaiotaomicron
P. maltophilia GIFU 2491 = assay: Antibacterial spectra, MIC; settings: Stenotrophomonas maltophilia, GIFU2491
P. aeruginosa IID 1210 = assay: Antibacterial spectra, MIC; settings: Pseudomonas aeruginosa, IID1210; 10^6 cells/ml; Gram -; read-out: MIC
P. aeruginosa IFO 12689 = assay: Antibacterial spectra, MIC; settings: Pseudomonas aeruginosa, IFO12689
B. fragilis 25285 = assay: Antibacterial spectra, MIC; settings: Bacteroides fragilis
[12] = test system: Eubacterium lentum GAI 5242; assay: Antibacterial spectra, MIC; settings: Eggerthella lenta, GAI5242
F. varium KYA 8501 = assay: Antibacterial spectra, MIC; settings: Fusobacterium varium, KYA8501
B. fragilis 0558 = assay: Antibacterial spectra, MIC; settings: Bacteroides fragilis
[13] = test system: Citrobacter freundii IID 976; assay: Antibacterial spectra, MIC
S. pyogenes IID 692 = assay: Antibacterial spectra, MIC; settings: Streptococcus pyogenes, IID692
[14] = test system: Salmonella enteritidis IID 604; assay: Antibacterial spectra, MIC; settings: Salmonella enterica
F. necrophorum S-45 = assay: Antibacterial spectra, MIC; settings: Fusobacterium necrophorum, S45
[15] = test system: Serratia marcescens IID 618; assay: Antibacterial spectra, MIC; settings: IID618
[16] = test system: Peptococcus magnus KY 017; assay: Antibacterial spectra, MIC; settings: Finegoldia magna, KY017
[17] = test system: Fusobacterium mortiferum 4249; assay: Antibacterial spectra, MIC
[18] = test system: Acinetobacter anitratus IID 876; assay: Antibacterial spectra, MIC; settings: Acinetobacter calcoaceticus, IID876
E. coli ML 4707 = assay: Antibacterial spectra, MIC; settings: Escherichia coli, ML4707; 10^6 cells/ml; Gram -
Procedure: (§1) The antibacterial test was carried out according to the method designated by Japan Society of Chemotherapy.

Shigella sonnei IID 969 = assay: Antibacterial spectra, MIC; settings: IID969, 10^6 cells/ml, Gram -
Procedure: as §1

[19] = test system: Streptococcus pyogenes (S-8); assay: Antibacterial spectra, MIC; settings: 10^6 cells/ml, Gram +
Procedure: as §1

E. faecalis IID 682 = assay: Antibacterial spectra, MIC; settings: Enterococcus faecalis, IID682; 10^6 cells/ml; Gram +
Procedure: as §1

[20] = test system: Proteus vulgaris IFO 3167; assay: Antibacterial spectra, MIC; settings: IFO3167, 10^6 cells/ml, Gram -
Procedure: as §1

S. epidermidis IID 866 = assay: Antibacterial spectra, MIC; settings: Staphylococcus epidermidis, IID866
E. coli ATCC 10536 = assay: Antibacterial spectra, MIC; settings: Escherichia coli, ATCC10536
B. vulgatus KYA 29327 = assay: Antibacterial spectra, MIC; settings: Phocaeicola vulgatus, KYA29327
[21] = test system: Enterobacter cloacae IID 977; assay: Antibacterial spectra, MIC; settings: IID977
[22] = test system: Veillonella parvula KYA 10790; assay: Antibacterial spectra, MIC; settings: KYA10790
[23] = test system: Alcaligenes faecalis 0114002; assay: Antibacterial spectra, MIC
P. cepacia GIFU 518 = assay: Antibacterial spectra, MIC; settings: Burkholderia cepacia, GIFU518
[24] = 10^6 cells/ml, Gram -, read-out: MIC

Measured: MIC

CNCC1CCN(c2c(F)cc3c(=O)c(C(=O)O)cn(C4CC4)c3c2OC)C1 (stereo not shown) [Exp. 8, 1-cyclopropyl-6-fluoro-1,4-dihydro-8-methoxy-7-(3-methylaminomethyl-1-pyrrolidinyl)-4-oxo-3-quinolinecarboxylic acid]
0.025 µg/mL: [7] | Bacilus subtilis PCI 219
0.78 µg/mL: [1] | [3]
0.2 µg/mL: [4] | C. perfringens KYA 13123 | [12] | [15] | [18] | [21]
12.5 µg/mL: P. aeruginosa IID 1210
≤ 0.05 µg/mL: [16]
0.1 µg/mL: K. pneumoniae 1-220S | [6] | [14]
0.39 µg/mL: [2] | Pst. micros UPI 5464-1 | C. ramosum | [9] | P. maltophilia GIFU 2491 | B. fragilis 25285 | B. fragilis 0558 | F. necrophorum S-45 | [17] | [22]
0.05 µg/mL: S. aureus Smith | [5] | [8] | S. pneumoniae IID 552 | P. mirabilis IID 994 | [10] | [13]; IID976 | S. pyogenes IID 692 | E. coli ML 4707 | Shigella sonnei IID 969 | [19] | E. faecalis IID 682 | [20] | S. epidermidis IID 866 | E. coli ATCC 10536
3.13 µg/mL: B. distasonis 8503 | [11] | P. aeruginosa IFO 12689 | F. varium KYA 8501 | B. vulgatus KYA 29327
1.56 µg/mL: [23]; [24] | P. cepacia GIFU 518; [24]

CCNCC1CCN(c2c(F)cc3c(=O)c(C(=O)O)cn(C4CC4)c3c2OC)C1 (stereo not shown) [Exp. 9, 1-cyclopropyl-7-(3-ethylaminomethyl-1-pyrrolidinyl)-6-fluoro-1,4-dihydro-8-methoxy-4-oxo-3-quinolinecarboxylic acid]
0.39 µg/mL: [1] | Pst. micros UPI 5464-1 | B. vulgatus KYA 29327 | [22]
6.25 µg/mL: P. aeruginosa IID 1210
0.0125 µg/mL: S. aureus Smith | [8] | [10]
1.56 µg/mL: [3]; 10^6 cells/ml, Gram +, read-out: MIC | P. aeruginosa IFO 12689; [24] | F. varium KYA 8501; [24]
0.2 µg/mL: C. ramosum | [9] | P. maltophilia GIFU 2491 | F. necrophorum S-45 | [17]
0.025 µg/mL: S. pneumoniae IID 552 | P. mirabilis IID 994 | E. coli ML 4707 | Shigella sonnei IID 969 | [19] | [20] | S. epidermidis IID 866 | E. coli ATCC 10536
≤ 0.05 µg/mL: [4] | C. perfringens KYA 13123 | [16]
0.0063 µg/mL: [7] | Bacilus subtilis PCI 219
0.1 µg/mL: [2] | K. pneumoniae 1-220S | [6] | B. fragilis 25285 | [12] | B. fragilis 0558 | [15] | [21]
0.78 µg/mL: B. distasonis 8503 | [11] | [23] | P. cepacia GIFU 518
0.055 µg/mL: [13]; IID976, 10^6 cells/ml, Gram -, read-out: MIC
0.05 µg/mL: [5] | S. pyogenes IID 692 | [14] | [18] | E. faecalis IID 682
